# Assay results reported in patent US11390661B2, “HCMV entry inhibitors” (priority 2016, dated 2022).
# What was measured:
# HCMV = assay: Neutralization of cell-free HCMV particles / inhibition of HCMV entry in cell culture; assay type: cell-based, Human cytomegalovirus
# Protocol: Infectious cell free HCMV preparations (corresponding to a multiplicity of infection of 1) are pre-incubated with the substance (at variable concentrations) for 2 h at 37° C. The pre-incubated mixture of HCMV and substance is added to cell cultures of choice, including at least a culture of human primary fibroblasts and a culture of human endothelial cells. Cells are incubated with the mixture for 2 h at 37° C. The mixture of HCMV and substance is then replaced with the appropriate cell culture medium and cells are further incubated for at least 16 h at 37° C. HCMV infection of the cells is detected by immunostaining of HCMV immediate early antigens (pUL122/123) with indirect immunofluorescence. The ratio of HCMV-IE antigen-positive cells per total cells is calculated as a readout for the efficiency of viral entry.
# [1] = test system: HCMV strains AD169, Towne, Merlin, VR1814, VHL/E, TB40/F; assay: Inhibition of HFF infection by other HCMV strains; assay type: cell-based, Human cytomegalovirus; conditions: 250 ng/ml, HFFs
# Protocol: (§1) Infection efficiencies were determined by immunofluorescence staining for viral proteins. For fixation and permeabilization the cells were incubated with 80% acetone for 5 min. For HCMV infected cells the immediate early proteins pUL122/123 were detected with a mouse monoclonal (clone E13, Argene) and visualized using a Cy3 conjugated goat anti-mouse secondary antibody (Jackson Immuno Research). HSV infected cultures were stained 6 h post infection for ICP0 using a mouse monoclonal (clone 11060, Santa Cruz) and goat anti-mouse AF488 (life technologies). DAPI was used to locate nuclei. Infection rates were determined by counting the number of cell nuclei positive for the respective viral protein, as well as the total number of nuclei per image. For each condition three images were evaluated.
# Next, it was tested whether soluble PDGFR-alpha-Fc would inhibit not only strain TB40/E but also other strains of HCMV. […] After an overnight incubation, the fraction of infected cells was determined by immunofluorescence staining of viral immediate early antigen. […]
# HSV-1 strain F = assay: Inhibition of HSV infection (specificity control); assay type: cell-based; conditions: data not shown
# Protocol: as §1
# HCMV particles = assay: Binding of chimeric receptors (Fc-fusion proteins) to HCMV particles; design: species or system Human cytomegalovirus
# Protocol: To assess the binding of Fc-Proteins to virus particles, HFFs were seeded at a density of 40,000 cells per well on IBIDI plates 1 day prior to infection. Virus preparations were pre-incubated with Fc-fusion proteins at a final concentration of 500 ng/ml for 2 h at 37° C. The virus/Fc-protein mixtures were incubated with the cells for 1.5 h on ice. Before fixation with 80% acetone, the cells were washed once with MEM. For staining of viral particles mouse hybridoma recognizing the abundant viral protein pp150 (generously provided by W. Britt, Sanchez 2000) used.
# The inventors tested this by staining of adsorbed virus particles with the Fc-fusion proteins. […] Virus particles were stained for the capsid protein pp150 and bound Fc-fusion proteins.
# The inventors analyzed the mode of inhibition by PDGFR-alpha-Fc. For this, the binding of different concentrations of the fusion protein was quantified by assessing the particle intensities after staining with anti-human antibody (FIG. 5). […] (FIGS. 4 and 5).
# [2] = test system: TB40-BACKL7-UL32EGFP-UL100mCherry; assay: Adsorption and penetration of dual fluorescent HCMV particles on HFFs; assay type: cell-based, Human cytomegalovirus; conditions: 100 ng/ml
# Protocol: (§2) To distinguish between adsorption and penetration of viral particles the inventors made use of dual fluorescent HCMV TB40-BACKL7-UL32EGFP-UL100mCherry (Sampaio 2013). HFFs and HECs were seeded at a density of 40,000 cells per well on gelatin-coated MIDI plates. Overnight produced cell-free infectious supernatant of the fluorescent virus was pre-incubated with PDGFR-Fcs for 2 h at 37° C. Before addition of the mixture the cells were pre-incubated with MEM for 30 min. […] After fixation with acetone, the EGFP signal of pUL32-EGFP was enhanced using mouse-anti-GFP (clone 3E6, Invitrogen) and Alexa488-anti-mouse (Life Technologies). DAPI (4′,6-diamidino-2-phenylindole) was added to mark the cell nuclei. The number of mCherry and EGFP positive particles which are enveloped was compared to the number of particles which were only green per cell. These […] particles have lost their UL100mCherry containing envelope, presumably by fusion with cellular membranes.
# (§3) To further investigate, which of the initial steps of infection are blocked, the inventors performed a series of experiments that allowed discriminating between adsorption and penetration. They used the dual fluorescent virus TB40-BACKL7-UL32EGFP-UL100mCherry (Sampaio 2013) as it allows to discriminate between enveloped (EGFP-positive and mCherry positive) and non-enveloped particles (only EGFP positive). […]
# [3] = test system: TB40-BACKL7-UL32EGFP-UL100mCherry; assay: Adsorption and penetration of dual fluorescent HCMV particles on HECs; assay type: cell-based, Human cytomegalovirus; conditions: 100 ng/ml
# Protocol: as §2, §3
# UL74stop virus = assay: Inhibition assay with UL74stop virus; assay type: cell-based, Human cytomegalovirus
# Protocol: To further investigate this, inhibition assays were performed with the UL74stop virus (FIG. 8B). As deletion of pUL74 from the virus has a severe effect on infectivity, virions had to be 50 fold concentrated for the experiment, whereas wild type virus had to be diluted to achieve similar infection rates.
# FIG. 8: pUL74 is the viral interaction partner of PDGFR-alpha-Fc. Virus preparations of strain TB40-BAC4 or TB40-BAC4UL74stop were pretreated for 2 h with PDGFR-alpha-Fc. A: HFFs were fixed after 90 min of incubation with the virus-inhibitor mixture followed by staining for the viral structural protein pUL32 (red) and for Fc (green). B: Wild type or pUL74stop virus preparations were pre-incubated for 2 h with PDGFR-alpha-Fc before infection of HFFs or HECs was allowed. Wild type or UL74stop virus preparations were diluted or concentrated respectively to obtain similar infection rates. Infection rates were determined by calculation of the number of immediate early positive nuclei over total DAPI stained nuclei per image. Out of three independent experiments one is shown.
substance,measurement,setting,value
"PDGFR-alpha-Fc: recombinant Fc-fusion protein of the PDGFR-alpha extracellular domain, obtained from R&D (6765-PR-050)",EC50 of binding to and neutralizing cell-free HCMV particles,HCMV,0.01 to 0.05 µg/mL
same,attachment to and fusion with cells of treated particles,HCMV,reduced attachment to and reduced fusion with cells
same,effect when applied post-attachment,HCMV,effective
same,"reduction of infection, strains other than VR1814",[1],complete
same,effect on HSV infection,HSV-1 strain F,not affected
same,EC50 of binding to HCMV particles,HCMV particles; particle intensities after anti-human antibody staining,0.108 µg/mL
same,binding of Fc-fusion protein to virus particles (anti-human antibody staining),"HCMV particles; particles pre-incubated with Fc-fusion protein, attached to cells on ice",binds to the virus
same,reduction of adsorption on HFFs,[2],50%
same,reduction of penetration of HFFs (less efficient),[2],75%
same,effect on penetration of HECs,[3],affected only in fibroblasts
same,reduction of adsorption on HECs,[3],75%
same,infectivity of the UL74stop virus with increasing doses,UL74stop virus,did not significantly change
